How the values were obtained:
[1] = system: bleomycin-induced lung fibrosis; test: Determination of bleomycin-induced lung collagen content (hydroxyproline); type: in vivo, mice; settings: 7 mg/kg orally, day 17, p=0.009
Procedure: (§1) Female 10- to 12-week-old C57BL/6 wild-type mice were intratracheally instilled with bleomycin (3.75 U/kg) dissolved in 10 μl saline to induce the fibrosis in the lungs. The treatment with a test compound started on day 0 and was continued daily—from day 0 (1 hour before the bleomycin instillation) to day 17. The test compound was administered orally at different dosages. Control mice were intratracheally instilled with saline on day 0. The body weight loss was recorded on a daily basis and the results of the determination are graphically represented in FIG. 1.
The objective of the present assay is to determine the reduction in lung fibrosis by specifically measuring the hydroxyproline content in the lungs of bleomycin-treated mice. Hydroxyproline is an amino acid component necessary for the build-up of collagen. The quantification of hydroxyproline in the lung after collagen hydrolysis is therefore seen as a suitable indicator for lung collagen content.
Mice were treated as described in Example 2. At day 17 of instillation, the animals were euthanized, and both lungs were removed. Total lung collagen was determined by analysis of hydroxyproline. Briefly, lungs were homogenized in Tris-HCl, pH 7.6, with a Tissue Tearor followed by incubation in Amberlite overnight at 115° C. […] Samples were cooled for 10 min and read at 560 nm on spectrophotometer. […]

[2] = system: bleomycin-induced lung inflammation; test: Determination of bleomycin-induced pulmonary oedema (lung wet/dry weight difference); type: in vivo, mice
Procedure: as §1
Lung fibrotic changes following instillation of bleomycin result from the infiltration of inflammatory cells like macrophages, lymphocytes and neutrophils into the lungs a well as an increase in pro-inflammatory cytokines such as TNFα. The pulmonary oedema is analyzed to determine whether a test compound affects the bleomycin-induced lung inflammation. What is determined is the difference wet/dry of the examined lungs, where high differences indicate a high degree of pulmonary oedema.
Mice were treated as described in Example 2. The test compound was compound (A) (i.e. 1,3-benzothiazol-2-yl(2-{[4-(morpholin-4-ylmethyl)benzyl]-oxy}pyrimidin-4-yl)aceto-nitrile). […] The lung dry and wet weight differences were calculated and graphically reported in FIG. 2. which illustrates the outcome of the assay for the test compound (A).

[3] = system: bleomycin-induced lung fibrosis; test: Determination of bleomycin-induced body weight loss; type: in vivo; settings: C57BL/6 mice
Procedure: The objective of the present Assay is to determine the loss of body weight of mice which is usually triggered by bleomycin-induced lung fibrosis.
as §1

[4] = system: bleomycin-induced lung fibrosis; test: Determination of bleomycin-induced pulmonary fibrosis (histological scoring); type: in vivo, mice
Procedure: as §1
Injection of bleomycin in mice induces focal fibrotic lesions with thickened intra-alveolar septa, collapse of alveolar septa as well as massive infiltration of lymphocytes into the lung interstitium. Such focal fibrotic lesions are histologically determined on day 17 after bleomycin administration.
Mice were treated as described in Example 2. […] Morphological evaluation of bleomycin-induced lung inflammation and fibrosis was performed using a semiquantitative scoring method consisting in a visual evaluation of histological section photos in which the surface of the fibrotic part of the lung is evaluated compared to the total surface. […]

## N#CC(c1ccnc(OCc2ccc(CN3CCOCC3)cc2)n1)c1nc2ccccc2s1 (stereo not shown) [test compound (A), 1,3-benzothiazol-2-yl(2-{[4-(morpholin-4-ylmethyl)benzyl]-oxy}pyrimidin-4-yl)acetonitrile]
[1]
  lung hydroxyproline content compared with saline-treated mice: significantly lower
[2]; 2 mg/kg orally, day 17, p=0.016
  pulmonary oedema (lung wet/dry weight difference) compared with saline-treated mice: significant reduction
[2]; 7 mg/kg orally, day 17, p=0.009
  pulmonary oedema (lung wet/dry weight difference) compared with saline-treated mice: significant reduction
[3]; 2 mg/kg orally daily, day 17
  reduction of the loss of body weight induced by bleomycin: about 30%
[3]; bleomycin instilled, oral daily treatment, day 5 to day 17, versus saline-treated mice
  body weight course: stabilization of their body weight
[4]; 7 mg/kg orally, day 17, p=0.016
  bleomycin-induced lung fibrosis, histological scoring of fibrotic lesions compared with saline-treated mice: significantly reduced
[4]; 20 mg/kg orally, day 17, p=0.009
  bleomycin-induced lung fibrosis, histological scoring of fibrotic lesions compared with saline-treated mice: significantly reduced

Reference: patent US7776854B2, “Benzazole derivatives for the treatment of scleroderma” (Merck Serono SA, priority 2001, dated 2010)
